1 substance from PMC5681751 (Angewandte Chemie (International ed. in English), 2017) can be followed below.

pKd: −log10 of the molar value.

The assay addresses T1, CblC (Homo sapiens, UniProt Q9Y4U1).
T1 sequence (Q9Y4U1 1-282): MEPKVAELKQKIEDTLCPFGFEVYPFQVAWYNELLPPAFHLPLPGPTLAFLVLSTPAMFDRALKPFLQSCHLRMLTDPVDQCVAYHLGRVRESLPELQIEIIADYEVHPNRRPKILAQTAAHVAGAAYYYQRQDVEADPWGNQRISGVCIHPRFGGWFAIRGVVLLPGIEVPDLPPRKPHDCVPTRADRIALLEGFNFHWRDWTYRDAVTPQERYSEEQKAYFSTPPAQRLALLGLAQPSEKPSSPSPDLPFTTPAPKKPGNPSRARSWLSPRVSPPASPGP
Kind of assay: isothermal titration calorimetry. Particulars: in the presence of glutathione (GSH); base-off binding.

Broadly, the pKd is −log10 of the Kd, conventionally taken in molar units. On to PhEtyCbl [compound 2], for which the pKd was 7.52.
